Test results reported in US12679878B2, “CRF2 receptor agonists and their use in therapy” (SANOFI, priority 2020, dated 2026).
Like-named read-outs stand apart in the source and are kept apart here. Starred links: 1 amine or outer side, 2 acyl side, 3 side chain; linkers in the order of their positions; H or OH if unused. Non-standard residues stand in square brackets, D forms with d. Residues, ends and D or L forms follow the SMILES beside them. Groups on a side chain read outwards from the residue. *: point of attachment. C20 diacid = O=C(O)CCCCCCCCCCCCCCCCCCC(=O)*; C18 diacid = O=C(O)CCCCCCCCCCCCCCCCC(=O)*; γGlu = O=C(O)[C@H](CCC(=O)[*:2])N[*:1]; AEEA = NCCOCCOCC(=O)O; Aib = CC(C)(N)C(=O)O

Tests used:
rat CRF2R α receptor = assay: cAMP agonism at rat CRF2R α receptor in A7R5 rat aortic smooth muscle cells (Example 8); type: cell-based; conditions: cAMP HTRF, A7R5 rat aortic smooth muscle cell line, 0% HSA
Procedure, shortened: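 Thawed cryopreserved A7R5 cells in HBSS/20 mM HEPES (0 or 0.1% HSA) with 2 mM IBMX, 2000 cells/well, were exposed to compound for 30 min at room temperature. cAMP was read by HTRF (665/620 nm ratio) after 1 h with lysis reagents. Activity was normalised to 1000 nM urocortin 2 as 100%, and EC50 was taken as the concentration giving 50% of maximal activation.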

[1] = Chemical stability, purity loss by UPLC-UV after 28 days at 40° C. vs 5° C., pH 4.5 acetate buffer (Example 12); type: physicochemical; conditions: 28 days 40° C. vs 5° C.; pH 4.5, 20 mM acetate buffer; 300 μM
Procedure, shortened: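 300 μM compound (purity-corrected) in 20 mM acetate buffer, pH 4.5, stored 28 days at 5 and 40° C. Purity by UPLC-UV as compound peak area over total peak area. Value is the purity difference between 5° C. and 40° C. samples, relative to the 5° C. purity, in percent.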

human CRF2α receptor = biological target: T1, human CRF2α receptor (Homo sapiens, UniProt Q13324); assay: cAMP agonism at human CRF2 α receptor in TeloHEAC cells (Example 7); type: cell-based; conditions: cAMP HTRF, TeloHEAC cells stably expressing human CRF2 α
T1 construct: expressed in transfected cells; host or cells: TeloHEAC
T1 sequence (Q13324 1-411): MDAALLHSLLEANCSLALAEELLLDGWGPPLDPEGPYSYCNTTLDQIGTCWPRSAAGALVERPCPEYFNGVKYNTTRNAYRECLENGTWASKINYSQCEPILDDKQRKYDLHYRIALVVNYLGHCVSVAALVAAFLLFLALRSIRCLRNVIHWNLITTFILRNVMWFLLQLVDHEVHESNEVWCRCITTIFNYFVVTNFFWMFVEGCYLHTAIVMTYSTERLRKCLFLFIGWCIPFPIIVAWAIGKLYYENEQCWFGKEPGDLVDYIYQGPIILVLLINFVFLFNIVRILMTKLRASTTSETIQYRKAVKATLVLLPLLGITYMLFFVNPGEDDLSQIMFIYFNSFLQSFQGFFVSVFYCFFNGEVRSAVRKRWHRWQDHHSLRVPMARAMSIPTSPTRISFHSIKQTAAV
Procedure, shortened: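 Thawed frozen stably transfected cells in HBSS/20 mM HEPES (0% or 0.1% HSA) plus 2 mM IBMX were exposed to compound at 2000 cells/well for 30 min at room temperature. Intracellular cAMP was read by HTRF (665/620 nm ratio) after 1 h lysis; EC50 was derived with 1000 nM urocortin 2 set as 100%.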

CRF1R receptor = biological target: T2, CRF1R receptor (Homo sapiens, UniProt P34998); assay: cAMP activity at anti-target CRF1R, CRF1R-overexpression CHO cell line (Example 9); type: cell-based; conditions: for EC50: 0% HSA
T2 construct: host or cells: CHO-K1 clone 2
T2 sequence (P34998 24-415): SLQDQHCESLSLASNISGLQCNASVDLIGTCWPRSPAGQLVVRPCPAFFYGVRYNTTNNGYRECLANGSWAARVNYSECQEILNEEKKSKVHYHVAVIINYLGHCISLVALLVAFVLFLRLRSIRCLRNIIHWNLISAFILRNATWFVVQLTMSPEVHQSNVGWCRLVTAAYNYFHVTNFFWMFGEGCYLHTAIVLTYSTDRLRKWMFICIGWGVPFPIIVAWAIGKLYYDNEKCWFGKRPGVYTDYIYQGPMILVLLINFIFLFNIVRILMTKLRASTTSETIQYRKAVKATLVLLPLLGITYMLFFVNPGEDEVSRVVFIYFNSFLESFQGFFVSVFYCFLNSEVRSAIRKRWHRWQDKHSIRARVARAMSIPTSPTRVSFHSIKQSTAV
Procedure, shortened: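 cAMP accumulation was read by HTRF after 30 min at room temperature of compound treatment. Cells were cryopreserved CHO cells overexpressing CRF1R, plated at 2000/well in IBMX (2 mM)-containing HBSS/HEPES buffer with 0 or 0.1% HSA. Activity was normalized to 1000 nM UCN2 as 100%.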

[2] = 0% HSA, read-out: EC50 [nM], 0% HSA
[3] = 0.1% HSA, read-out: EC50 [nM], 0.1% HSA
[4] = CRF1R-overexpression CHO cell line
[5] = CRF1R-overexpression CHO cell line, read-out: Emax (%)

EC50 (rat CRF2R α receptor) [nM] | Relative purity loss [%] [1] [%] | EC50 (human CRF2α receptor; [2]) [nM] | EC50 (human CRF2α receptor; [3]) [nM] | EC50 (CRF1R receptor; [4]) [nM] | Emax (CRF1R receptor; [5]) [%] | Structure (SMILES) | Emax (CRF1R receptor; CHO) [%]
0.81 | 4.45 | 0.24 | 3.82 | > 1000 | 1.77 | CC[C@H](C)[C@H](N)C(=O)N[C@H](C(=O)N[C@@H](CC(C)C)C(=O)N[C@@H](CO)C(=O)N[C@@H](CC(C)C)C(=O)N[C@@H](CC(=O)O)C(=O)N[C@H](C(=O)N1CCC[C@H]1C(=O)N[C@H](C(=O)N[C@@H](CCCCN)C(=O)N[C@@H](CC(C)C)C(=O)N[C@@H](CCCCNC(=O)COCCOCCNC(=O)COCCOCCNC(=O)CC[C@H](NC(=O)CCCCCCCCCCCCCCCCC(=O)O)C(=O)O)C(=O)N[C@@H](CCCCN)C(=O)N[C@H](C(=O)N[C@@H](CC(C)C)C(=O)N[C@@H](CC(C)C)C(=O)N[C@@H](CCC(=O)O)C(=O)N[C@@H](CCC(N)=O)C(=O)N[C@@H](CCC(=O)O)C(=O)N[C@@H](CCCCN)C(=O)N[C@@H](CCC(N)=O)C(=O)N[C@@H](CCCCN)C(=O)N[C@@H](CCCCN)C(=O)N[C@@H](CCC(N)=O)C(=O)N[C@@H](CCCNC(=N)N)C(=O)N[C@@H](CCC(=O)O)C(=O)N[C@@H](CCC(N)=O)C(=O)N[C@@H](C)C(=O)N[C@@H](CCC(=O)O)C(=O)N[C@H](C(=O)N[C@@H](CC(N)=O)C(=O)N[C@@H](CCCCN)C(=O)N[C@@H](CCC(N)=O)C(=O)N[C@H](C(=O)N[C@@H](CC(C)C)C(=O)N[C@@H](C)C(=O)N[C@@H](CCC(N)=O)C(=O)N[C@H](C(N)=O)C(C)C)[C@@H](C)CC)[C@@H](C)O)[C@@H](C)CC)[C@@H](C)CC)C(C)C)C(C)C [compound 35] (H-IVLSLDVPIKLK([AEEA-AEEA-γGlu-C18 diacid])KILLEQEKQKKQREQAETNKQILAQV-NH2; N-terminus assumed) | 
0.62 |  | 0.06 | 1.6 | > 1000 | 3.25 | CC[C@H](C)[C@H](N)C(=O)N[C@H](C(=O)N[C@@H](CC(C)C)C(=O)N[C@@H](CO)C(=O)N[C@@H](CC(C)C)C(=O)N[C@@H](CC(=O)O)C(=O)N[C@H](C(=O)N1CCC[C@H]1C(=O)N[C@H](C(=O)N[C@@H](CCCCN)C(=O)N[C@@H](CC(C)C)C(=O)N[C@@H](CCCCNC(=O)COCCOCCNC(=O)COCCOCCNC(=O)CC[C@H](NC(=O)CCCCCCCCCCCCCCCCC(=O)O)C(=O)O)C(=O)N[C@@H](CCCCN)C(=O)N[C@H](C(=O)N[C@@H](CC(C)C)C(=O)N[C@@H](CC(C)C)C(=O)N[C@@H](CCCCN)C(=O)N[C@@H](CCC(N)=O)C(=O)N[C@@H](CCC(=O)O)C(=O)N[C@@H](CCCNC(=N)N)C(=O)N[C@@H](CCC(N)=O)C(=O)N[C@@H](CCCCN)C(=O)N[C@@H](CCCCN)C(=O)NC(C)(C)C(=O)N[C@@H](CCCNC(=N)N)C(=O)N[C@@H](CCC(=O)O)C(=O)N[C@@H](CCC(N)=O)C(=O)N[C@@H](C)C(=O)N[C@@H](CCC(=O)O)C(=O)N[C@@H](CCCCN)C(=O)N[C@@H](CC(N)=O)C(=O)N[C@@H](CCCCN)C(=O)N[C@@H](CCC(N)=O)C(=O)N[C@H](C(=O)N[C@@H](CC(C)C)C(=O)N[C@@H](C)C(=O)N[C@@H](CCC(N)=O)C(=O)N[C@H](C(N)=O)C(C)C)[C@@H](C)CC)[C@@H](C)CC)[C@@H](C)CC)C(C)C)C(C)C [compound 99] (H-IVLSLDVPIKLK([AEEA-AEEA-γGlu-C18 diacid])KILLKQERQKK[Aib]REQAEKNKQILAQV-NH2) | 
0.13 | 3.55 | 0.04 | 1.48 | > 1000 | 28.4 | CC[C@H](C)[C@H](N)C(=O)N[C@H](C(=O)N[C@@H](CC(C)C)C(=O)N[C@@H](CO)C(=O)N[C@@H](CC(C)C)C(=O)N[C@@H](CC(=O)O)C(=O)N[C@@H](C(=O)N1CCC[C@H]1C(=O)N[C@H](C(=O)N[C@@H](CCCCN)C(=O)N[C@@H](CC(C)C)C(=O)N[C@@H](CCCCNC(=O)COCCOCCNC(=O)COCCOCCNC(=O)CC[C@H](NC(=O)CCCCCCCCCCCCCCCCC(=O)O)C(=O)O)C(=O)N[C@@H](CCC(N)=O)C(=O)N[C@H](C(=O)N[C@@H](CC(C)C)C(=O)N[C@@H](CC(C)C)C(=O)N[C@@H](CCCCN)C(=O)N[C@@H](CCC(N)=O)C(=O)N[C@@H](CCC(=O)O)C(=O)N[C@@H](CCCNC(=N)N)C(=O)N[C@@H](CCC(N)=O)C(=O)N[C@@H](CCCCN)C(=O)NC(C)(C)C(=O)N[C@@H](CCC(N)=O)C(=O)N[C@@H](CCCNC(=N)N)C(=O)N[C@@H](CCC(N)=O)C(=O)N[C@@H](CCC(N)=O)C(=O)N[C@@H](C)C(=O)N[C@@H](CCC(=O)O)C(=O)N[C@@H](CCCCN)C(=O)N[C@@H](CC(N)=O)C(=O)N[C@@H](CCCCN)C(=O)N[C@@H](CCC(N)=O)C(=O)N[C@H](C(=O)N[C@@H](CC(C)C)C(=O)N[C@@H](C)C(=O)N[C@@H](CCC(N)=O)C(=O)N[C@H](C(N)=O)C(C)C)[C@@H](C)CC)[C@@H](C)CC)[C@@H](C)CC)C(C)C)C(C)C [compound 135] (H-IVLSLD[dV]PIKLK([AEEA-AEEA-γGlu-C18 diacid])QILLKQERQK[Aib]QRQQAEKNKQILAQV-NH2; N-terminus assumed) | 

Structure (SMILES) | EC50 (rat CRF2R α receptor) [nM] | Relative purity loss [%] [1] [%] | EC50 (human CRF2α receptor; [2]) [nM] | EC50 (human CRF2α receptor; [3]) [nM] | EC50 (CRF1R receptor; [4]) [nM] | Emax (CRF1R receptor; [5]) [%] | Emax (CRF1R receptor; CHO) [%]
CC[C@H](C)[C@H](NC(=O)[C@H](CCC(N)=O)NC(=O)[C@H](CCC(=O)O)NC(=O)[C@H](CC(C)C)NC(=O)[C@H](CC(C)C)NC(=O)[C@H](CCC(N)=O)NC(=O)[C@H](CCCCN)NC(=O)[C@H](CC(N)=O)NC(=O)[C@H](CCCCN)NC(=O)[C@H](CCC(=O)O)NC(=O)[C@H](C)NC(=O)[C@H](CCC(N)=O)NC(=O)[C@H](CCC(N)=O)NC(=O)[C@H](CCCNC(=N)N)NC(=O)[C@H](CCC(=O)O)NC(=O)[C@H](CCCCN)NC(=O)[C@H](CCCCN)NC(=O)[C@H](CCC(N)=O)NC(=O)[C@H](CCCCN)NC(=O)[C@H](CCC(N)=O)NC(=O)[C@H](CCC(N)=O)NC(=O)[C@H](CCCCN)NC(=O)[C@H](CC(C)C)NC(=O)[C@H](CC(C)C)NC(=O)[C@@H](NC(=O)[C@H](CCC(N)=O)NC(=O)[C@H](CCCCNC(=O)COCCOCCNC(=O)COCCOCCNC(=O)CC[C@H](NC(=O)CCCCCCCCCCCCCCCCCCC(=O)O)C(=O)O)NC(=O)[C@@H](NC(=O)[C@H](CCCCN)NC(=O)[C@@H](NC(=O)[C@@H]1CCCN1C(=O)[C@@H](NC(=O)[C@H](CC(=O)O)NC(=O)[C@H](CC(C)C)NC(=O)[C@H](CO)NC(=O)[C@H](CC(C)C)NC(=O)[C@@H](NC(=O)[C@@H](N)Cc1ccccc1)[C@@H](C)O)C(C)C)[C@@H](C)O)[C@@H](C)CC)[C@@H](C)CC)C(N)=O [compound 59] (H-FTLSLDVPTKIK([AEEA-AEEA-γGlu-C20 diacid])QILLKQQKQKKERQQAEKNKQLLEQI-NH2) | 0.34 | 2.85 | 0.15 | 17.4 |  |  | 11.1
